Data taken from the supplement of paper PMC10307832.

compound: Cn1nnc2c(C(N)=O)ncn2c1=O [Temozolomide] + COc1cc2c(Oc3ccc(NC(=O)C4(C(=O)Nc5ccc(F)cc5)CC4)cc3F)ccnc2cc1OCCCN1CCOCC1 [Foretinib] (partner 0.25 µM); test: relative viability (nuclei count vs DMSO), 5 days (fraction); higher = more cells survive; settings: first compound 20 µM
Procedure, shortened: (§1)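 Values are medians from duplicate plates. Each reflects relative viability, defined as the nuclei count of treated wells over that of vehicle wells. Lung cancer cell lines in 1536-well plates were pin-tool dosed one day after seeding with one drug alone or with a fixed anchor-drug dose plus five library-drug doses (not always all listed) in √10 steps, then fixed, stained and imaged at 4× after 5 days.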

Compared with PC-3 [JPC-3], PC-14 is lower in relative viability: 0.526 for the first, 0.202 for the second.

Going from RERF-LC-KJ to SK-LU-1, the relative viability falls from 0.901 to 0.342.

First: SK-MES-1
Second: SW 1573
The relative viability of the first is lower: 0.521 for the first, 0.938 for the second.

With UMC-11 the relative viability was 0.57.

compound: Cn1nnc2c(C(N)=O)ncn2c1=O [Temozolomide] + CC1(C)CCC(c2ccc(Cl)cc2)=C(CN2CCN(c3ccc(C(=O)NS(=O)(=O)c4ccc(N[C@H](CCN5CCOCC5)CSc5ccccc5)c(S(=O)(=O)C(F)(F)F)c4)cc3)CC2)C1 [Navitoclax] (partner 0.5 µM); test: as above; settings: first compound 0.2 µM
Procedure, shortened: as §1

Going from NCI-H2228 to NCI-H2347, the relative viability falls from 0.921 to 0.818.

Compared with NCI-H2405, NCI-H3122 is higher in relative viability: 0.34 for the first, 1.05 for the second.

Going from PC-3 [JPC-3] to PC-14, the relative viability rises from 0.725 to 1.07.

First: RERF-LC-KJ
Second: SK-LU-1
The relative viability of the first is higher: 1.04 for the first, 1.03 for the second.

First: SK-MES-1
Second: SW 1573
The relative viability of the first is higher: 1.22 for the first, 0.993 for the second.

In the case of UMC-11, the relative viability was 0.338.

same assay, conditions: first compound 0.6325 µM

Compared with NCI-H2228, NCI-H2347 is lower in relative viability: 1.43 for the first, 0.825 for the second.

First: NCI-H2405
Second: NCI-H3122
The relative viability of the first is lower: 0.775 for the first, 1.03 for the second.

Compared with PC-3 [JPC-3], PC-14 is higher in relative viability: 0.847 for the first, 1.01 for the second.

First: RERF-LC-KJ
Second: SK-LU-1
The relative viability of the first is higher: 0.884 for the first, 0.88 for the second.

First: SK-MES-1
Second: SW 1573
The relative viability of the first is higher: 1.16 for the first, 1.03 for the second.

Work on UMC-11 yielded a relative viability of 0.315.

same assay, conditions: first compound 2 µM

Going from NCI-H2228 to NCI-H2347, the relative viability falls from 0.951 to 0.441.

First: NCI-H2405
Second: NCI-H3122
The relative viability of the first is lower: 0.995 for the first, 1.08 for the second.

Compared with PC-3 [JPC-3], PC-14 is higher in relative viability: 0.784 for the first, 1.06 for the second.

Compared with RERF-LC-KJ, SK-LU-1 is lower in relative viability: 0.928 for the first, 0.8 for the second.

First: SK-MES-1
Second: SW 1573
The relative viability of the first is higher: 1.23 for the first, 1.05 for the second.

UMC-11 was tested, and the relative viability was 0.313.

same assay, conditions: first compound 6.325 µM

Going from NCI-H2228 to NCI-H2347, the relative viability falls from 0.857 to 0.73.

Going from NCI-H2405 to NCI-H3122, the relative viability rises from 0.73 to 1.01.

Going from PC-3 [JPC-3] to PC-14, the relative viability rises from 0.82 to 0.956.

Going from RERF-LC-KJ to SK-LU-1, the relative viability falls from 0.951 to 0.522.

Going from SK-MES-1 to SW 1573, the relative viability falls from 1.22 to 1.

UMC-11 gave a relative viability of 0.281.

same assay, conditions: first compound 20 µM

First: NCI-H2228
Second: NCI-H2347
The relative viability of the first is higher: 1.26 for the first, 0.732 for the second.

Compared with NCI-H2405, NCI-H3122 is higher in relative viability: 0.82 for the first, 0.976 for the second.

Going from PC-3 [JPC-3] to PC-14, the relative viability rises from 0.364 to 0.928.

Going from RERF-LC-KJ to SK-LU-1, the relative viability falls from 1.06 to 0.189.

First: SK-MES-1
Second: SW 1573
The relative viability of the first is higher: 1.38 for the first, 0.935 for the second.

UMC-11 showed a relative viability of 0.274.

compound: C[C@@H](C(=O)N[C@@H](C1CCCCC1)C(=O)N2CCC[C@H]2C(=O)N[C@@H]3[C@@H](CC4=CC=CC=C34)OCC#CC#CCO[C@@H]5CC6=CC=CC=C6[C@@H]5NC(=O)[C@@H]7CCCN7C(=O)[C@H](C8CCCCC8)NC(=O)[C@H](C)NC)NC [AZD5582] + CC1(C)CCC(c2ccc(Cl)cc2)=C(CN2CCN(c3ccc(C(=O)NS(=O)(=O)c4ccc(N[C@H](CCN5CCOCC5)CSc5ccccc5)c(S(=O)(=O)C(F)(F)F)c4)cc3)CC2)C1 [Navitoclax] (partner 0.5 µM); test: as above; settings: first compound 0.001581 µM
Procedure, shortened: as §1

Compared with NCI-H2228, NCI-H2347 is lower in relative viability: 0.904 for the first, 0.747 for the second.

First: NCI-H2405
Second: NCI-H3122
The relative viability of the first is lower: 0.875 for the first, 1.04 for the second.

Going from PC-3 [JPC-3] to PC-14, the relative viability rises from 0.752 to 1.06.

Going from RERF-LC-KJ to SK-LU-1, the relative viability rises from 0.375 to 0.462.

Compared with SK-MES-1, SW 1573 is lower in relative viability: 1.22 for the first, 0.848 for the second.

UMC-11 showed a relative viability of 0.333.

same assay, conditions: first compound 0.005 µM

Going from NCI-H2228 to NCI-H2347, the relative viability rises from 0.851 to 0.941.

Going from NCI-H2405 to NCI-H3122, the relative viability falls from 1.21 to 1.03.

First: PC-3 [JPC-3]
Second: PC-14
The relative viability of the first is lower: 0.727 for the first, 0.967 for the second.

First: SK-LU-1
Second: SK-MES-1
The relative viability of the first is lower: 0.471 for the first, 1.3 for the second.

Compared with SW 1573, UMC-11 is lower in relative viability: 0.926 for the first, 0.299 for the second.

same assay, conditions: first compound 0.01581 µM

First: NCI-H2228
Second: NCI-H2347
The relative viability of the first is higher: 0.837 for the first, 0.791 for the second.

First: NCI-H3122
Second: PC-3 [JPC-3]
The relative viability of the first is higher: 1.01 for the first, 0.664 for the second.

Compared with PC-14, RERF-LC-KJ is lower in relative viability: 0.969 for the first, 0.825 for the second.

Compared with SK-LU-1, SK-MES-1 is higher in relative viability: 0.819 for the first, 1.25 for the second.

Compared with SW 1573, UMC-11 is lower in relative viability: 0.82 for the first, 0.335 for the second.

same assay, conditions: first compound 0.05 µM

First: NCI-H2228
Second: NCI-H2347
The relative viability of the first is lower: 0.555 for the first, 0.748 for the second.

Compared with NCI-H2405, NCI-H3122 is lower in relative viability: 0.866 for the first, 0.619 for the second.

Going from PC-3 [JPC-3] to PC-14, the relative viability rises from 0.486 to 1.11.

First: RERF-LC-KJ
Second: SK-LU-1
The relative viability of the first is lower: 0.295 for the first, 0.351 for the second.

Compared with SK-MES-1, SW 1573 is higher in relative viability: 1.15 for the first, 1.32 for the second.

In the case of UMC-11, the relative viability was 0.321.
